Data reported in patent US20240270821A1, “GIP/GLP1/GCG TRI-RECEPTOR AGONISTS AND USES THEREOF” (priority 2023, published 2024).
Like-named read-outs stand apart in the source and are kept apart here. Starred links: 1 amine or outer side, 2 acyl side, 3 side chain; linkers in the order of their positions; H or OH if unused. Non-standard residues stand in square brackets, D forms with d. Groups on a side chain read outwards from the residue. *: point of attachment. C18 diacid = O=C(O)CCCCCCCCCCCCCCCCC(=O)*; αMePhe(2-F) = C[C@](N)(Cc1ccccc1F)C(=O)O; γGlu = O=C(O)[C@H](CCC(=O)[*:2])N[*:1]; αMe4Pal = C[C@](N)(Cc1ccncc1)C(=O)O; αMeY = C[C@](N)(Cc1ccc(O)cc1)C(=O)O; 4Pal = N[C@@H](Cc1ccncc1)C(=O)O; αMeL = CC(C)C[C@](C)(N)C(=O)O; Orn = NCCC[C@H](N)C(=O)O; AEEA = NCCOCCOCC(=O)O; Aib = CC(C)(N)C(=O)O

Assays:
Assay type in all cases: cell-based
hGLP-1R [1] = target: T1, hGLP-1R (Homo sapiens, UniProt P43220); test: Functional cAMP activation in the presence of 0.1% casein (no HSA); details: read-out: Relative cAMP EC50, hGLP-1R;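 further: intracellular cAMP rise after 30 min at 37 °C read by HTRF, normalized between buffer only (0%) and maximal control ligand (100%), four-parameter variable-slope fit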
hGIPR [2] = target: T2, hGIPR (Homo sapiens, UniProt P48546); test: Functional cAMP activity in the presence of 1% HSA; details: read-out: cAMP Rel EC50, hGIPR
T2 sequence (P48546 22-466): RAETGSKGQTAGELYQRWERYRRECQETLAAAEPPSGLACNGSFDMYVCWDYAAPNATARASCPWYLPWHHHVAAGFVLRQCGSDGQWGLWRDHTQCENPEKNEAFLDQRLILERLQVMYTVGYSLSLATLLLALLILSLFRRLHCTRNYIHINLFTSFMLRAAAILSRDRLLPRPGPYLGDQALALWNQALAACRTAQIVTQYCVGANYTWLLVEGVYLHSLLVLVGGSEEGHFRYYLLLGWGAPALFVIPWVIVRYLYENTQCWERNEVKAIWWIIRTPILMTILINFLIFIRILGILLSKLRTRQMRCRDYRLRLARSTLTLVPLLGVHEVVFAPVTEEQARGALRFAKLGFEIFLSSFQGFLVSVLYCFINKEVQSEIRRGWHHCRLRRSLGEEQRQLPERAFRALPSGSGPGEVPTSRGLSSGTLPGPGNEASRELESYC

hGLP-1R [3] = target: T1, hGLP-1R; test: Functional cAMP activity in the presence of 1% HSA; details: read-out: cAMP Rel EC50, hGLP-1R
hGcgR = hGcgR (Homo sapiens, UniProt P47871); test: Functional cAMP activation in the presence of 0.1% casein (no HSA); details: read-out: Relative cAMP EC50, hGcgR;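 further: intracellular cAMP rise after 30 min at 37 °C, read by HTRF against a cAMP standard curve, scaled from buffer only (0%) to maximal control ligand response (100%)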
hGIPR [4] = target: T2, hGIPR; test: as above; details: read-out: Relative cAMP EC50, hGIPR
human GcgR = human GcgR (Homo sapiens, UniProt P47871); test: Functional cAMP activity in the presence of 1% HSA; details: read-out: cAMP Rel EC50, hGcgR
[5] = in the presence of 0.1% casein (no HSA), geometric mean of relative EC50
[6] = HEK-293 clonal cell line, 1% HSA, geometric mean of relative EC50
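Wherever Relative cAMP EC50, hGIPR is given: intracellular cAMP rise after 30 min at 37 °C read by HTRF against a standard curve, scaled between buffer alone (0%) and top control ligand concentration (100%), four-parameter fit.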

hGcgR, sequence (P47871 26-477): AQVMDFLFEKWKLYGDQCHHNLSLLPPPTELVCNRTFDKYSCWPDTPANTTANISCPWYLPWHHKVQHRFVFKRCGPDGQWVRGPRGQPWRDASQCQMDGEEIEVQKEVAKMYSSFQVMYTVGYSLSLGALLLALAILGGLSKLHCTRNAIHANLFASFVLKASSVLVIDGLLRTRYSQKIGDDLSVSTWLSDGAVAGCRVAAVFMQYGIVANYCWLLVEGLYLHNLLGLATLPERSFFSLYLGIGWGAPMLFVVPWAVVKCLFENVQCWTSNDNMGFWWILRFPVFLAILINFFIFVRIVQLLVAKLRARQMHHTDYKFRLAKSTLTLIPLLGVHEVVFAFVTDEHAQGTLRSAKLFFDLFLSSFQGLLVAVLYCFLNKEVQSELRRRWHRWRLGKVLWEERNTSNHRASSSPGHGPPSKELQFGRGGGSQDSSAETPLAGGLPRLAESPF
human GcgR, sequence (P47871 26-477): as above
T1 sequence (P43220 24-463): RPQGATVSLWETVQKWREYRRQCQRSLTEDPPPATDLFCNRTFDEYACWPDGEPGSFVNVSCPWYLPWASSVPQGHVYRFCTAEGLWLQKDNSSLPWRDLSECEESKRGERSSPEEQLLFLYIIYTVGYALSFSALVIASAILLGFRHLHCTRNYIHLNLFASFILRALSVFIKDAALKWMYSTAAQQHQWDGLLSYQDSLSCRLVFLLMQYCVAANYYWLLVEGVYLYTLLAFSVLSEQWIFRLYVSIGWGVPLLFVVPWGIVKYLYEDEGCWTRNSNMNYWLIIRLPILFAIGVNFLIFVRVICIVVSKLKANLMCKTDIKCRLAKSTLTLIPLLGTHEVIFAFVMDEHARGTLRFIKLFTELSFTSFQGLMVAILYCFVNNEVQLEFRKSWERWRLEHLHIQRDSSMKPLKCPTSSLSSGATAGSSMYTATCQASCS

Substance | EC50 (hGLP-1R [1]) | EC50 (hGIPR [2]) | EC50 (hGLP-1R [3]) | EC50 (hGcgR) | EC50 (hGIPR [4]) | EC50 (human GcgR) | EC50 (hGLP-1R [1]; [5]) | EC50 (hGIPR [2]; [6]) | EC50 (hGLP-1R [3]; [6]) | EC50 (hGcgR; [5]) | EC50 (hGIPR [4]; [5]) | EC50 (human GcgR; [6])
H-Y[Aib]QGT[αMePhe(2-F)]TSD[4Pal]SI[αMeL]LDKK([γGlu-γGlu-C18 diacid])AQ[Aib]AFIEYLEEGGPSSGAPPPSGTGE-NH2 [Example 622] | 0.776 nM | 1.19 nM | 52.3 nM | 7.7 nM | 0.0148 nM | 641 nM |  |  |  |  |  | 
H-Y[Aib]QGT[αMePhe(2-F)]TSD[4Pal]SI[αMeL]LDKK([γGlu-γGlu-C18 diacid])AQ[Aib]AFIEYLEEGGPSSGEPPPSGEGE-NH2 [Example 625] | 1.16 nM | 1.81 nM | 72.1 nM | 8.53 nM | 0.0291 nM | 657 nM |  |  |  |  |  | 
H-Y[Aib]QGT[αMePhe(2-F)]TSD[4Pal]SI[αMeL]LDKK([γGlu-γGlu-C18 diacid])AQ[Aib]AFIEYLEEGGPSSGEPPPSGSEE-NH2 [Example 630] |  |  |  |  |  |  | 0.762 nM | 2.96 nM | 74.5 nM | 8.07 nM | 0.0233 nM | 872 nM
H-Y[Aib]QGT[αMePhe(2-F)]TSD[4Pal]SI[αMeL]LDKK([γGlu-γGlu-C18 diacid])AQ[Aib]AFIEYLEEGGPSSGEPPPSGTGE-NH2 [Example 624] | 0.95 nM | 1.17 nM | 63.4 nM | 8.42 nM | 0.0222 nM | 808 nM |  |  |  |  |  | 
H-Y[Aib]QGT[αMePhe(2-F)]TSD[4Pal]SI[αMeL]LDKK([γGlu-γGlu-C18 diacid])AQ[Aib]AFIEYLQEGGPSSGEPPPSGSEE-NH2 [Example 634] |  |  |  |  |  |  | 0.403 nM | 1.48 nM | 34.9 nM | 6.49 nM | 0.0195 nM | 979 nM
H-Y[Aib]QGT[αMePhe(2-F)]TSD[4Pal]SI[αMeL]LDKK([γGlu-γGlu-C18 diacid])AQ[Aib]AFIEYLSEGGPSSGEPPPSGSEE-NH2 [Example 632] |  |  |  |  |  |  | 0.951 nM | 5.48 nM | 88.2 nM | 13.5 nM | 0.068 nM | 1600 nM
H-Y[Aib]QGT[αMePhe(2-F)]TSD[4Pal]SI[αMeL]LDKK([γGlu-γGlu-C18 diacid])AQ[Aib]AFIEYLTEGGPSSGEPPPSGSEE-NH2 [Example 633] |  |  |  |  |  |  | 0.421 nM | 1.63 nM | 41.2 nM | 10.2 nM | 0.0186 nM | 1500 nM
H-Y[Aib]QGT[αMePhe(2-F)]TSD[4Pal]SI[αMeL]LDKK([γGlu-γGlu-C18 diacid])AQ[Aib][Orn]FIEYLAEGGPSSGEPPPEGSEE-NH2 [Example 650] |  |  |  |  |  |  | 0.649 nM | 3.1 nM | 31.4 nM | 16.2 nM | 0.0814 nM | 574 nM
H-Y[Aib]QGT[αMePhe(2-F)]TSD[4Pal]SI[αMeL]LDKK([γGlu-γGlu-C18 diacid])AQ[Aib][Orn]FIEYLAEGGPSSGEPPPSGSEE-NH2 [Example 636] |  |  |  |  |  |  | 0.504 nM | 4.3 nM | 36.6 nM | 9.28 nM | 0.054 nM | 935 nM
H-Y[Aib]QGT[αMePhe(2-F)]TSD[4Pal]SI[αMeL]LDKK([γGlu-γGlu-C18 diacid])AQ[Aib][Orn]FIEYLEEGGPSSGEPPPSGSEE-NH2 [Example 635] |  |  |  |  |  |  | 0.625 nM | 2.7 nM | 53.9 nM | 7.09 nM | 0.0405 nM | 753 nM
H-Y[Aib]QGT[αMePhe(2-F)]TSD[4Pal]SI[αMeL]LDKK([γGlu-γGlu-C18 diacid])AQ[Aib][Orn]FIEYLQEGGPSSGEPPPEGSEE-NH2 [Example 653] |  |  |  |  |  |  | 0.426 nM | 1.38 nM | 25 nM | 7.29 nM | 0.0303 nM | 542 nM
H-Y[Aib]QGT[αMePhe(2-F)]TSD[4Pal]SI[αMeL]LDKK([γGlu-γGlu-C18 diacid])AQ[Aib][Orn]FIEYLSEGGPSSGEPPPEGSEE-NH2 [Example 651] |  |  |  |  |  |  | 1.02 nM | 6.3 nM | 53.9 nM | 10.7 nM | 0.112 nM | 639 nM
H-Y[Aib]QGT[αMePhe(2-F)]TSD[4Pal]SI[αMeL]LDKK([γGlu-γGlu-C18 diacid])AQ[Aib][Orn]FIEYLSEGGPSSGEPPPSGSEE-NH2 [Example 637] |  |  |  |  |  |  | 1.08 nM | 7.23 nM | 76.2 nM | 11.7 nM | 0.108 nM | 968 nM
H-Y[Aib]QGT[αMePhe(2-F)]TSD[4Pal]SI[αMeL]LDKK([γGlu-γGlu-C18 diacid])AQ[Aib][Orn]FIEYLTEGGPSSGEPPPEGSEE-NH2 [Example 652] |  |  |  |  |  |  | 0.426 nM | 1.92 nM | 26.8 nM | 15.3 nM | 0.0342 nM | 764 nM
H-Y[Aib]QGT[αMePhe(2-F)]TSD[4Pal]SI[αMeL]LDKK([γGlu-γGlu-C18 diacid])AQ[Aib][Orn]FIEYLTEGGPSSGEPPPSGSEE-NH2 [Example 638] |  |  |  |  |  |  | 0.4 nM | 2.39 nM | 36 nM | 14 nM | 0.0354 nM | 1090 nM
H-Y[Aib]QGT[αMePhe(2-F)]TSD[4Pal]SI[αMeL]LD[Orn]K([AEEA-γGlu-C18 diacid])AQ[Aib][Orn]FIEYLIEGGPSSGEPPPEEG-NH2 [Example 477] | 0.173 nM | 1.44 nM | 18.7 nM | 5.26 nM | 0.0127 nM | 716 nM |  |  |  |  |  | 
H-Y[Aib]QGT[αMePhe(2-F)]TSD[4Pal]SI[αMeL]LD[Orn]K([AEEA-γGlu-C18 diacid])AQ[Aib][Orn]FIEYLIEGGPSSGEPPPSEG-NH2 [Example 489] | 0.172 nM | 1.25 nM | 11.8 nM | 2.31 nM | 0.0121 nM | 523 nM |  |  |  |  |  | 
H-Y[Aib]QGT[αMePhe(2-F)]TSD[4Pal]SI[αMeL]LD[Orn]K([AEEA-γGlu-C18 diacid])AQ[Aib][Orn]FIEYLLEGGPSSGEPPPEEG-NH2 [Example 494] | 0.211 nM | 1.08 nM | 19.9 nM | 1.26 nM | 0.014 nM | 333 nM |  |  |  |  |  | 
H-Y[Aib]QGT[αMePhe(2-F)]TSD[4Pal]SI[αMeL]LD[Orn]K([AEEA-γGlu-C18 diacid])AQ[αMe4Pal]EFI[dE][αMeY]LAEGGPSSGAPPPSGS-NH2 [Example 642] | 0.474 nM | 0.791 nM | 67.1 nM | 3.49 nM | 0.00796 nM | 519 nM |  |  |  |  |  | 
H-Y[Aib]QGT[αMePhe(2-F)]TSD[4Pal]SI[αMeL]LD[Orn]K([AEEA-γGlu-C18 diacid])AQ[αMe4Pal]EFI[dE][αMeY]LIEGGPSSGAPPPSGS-NH2 [Example 640] | 0.288 nM | 0.591 nM | 27.8 nM | 9.5 nM | 0.00696 nM | 730 nM |  |  |  |  |  | 
H-Y[Aib]QGT[αMePhe(2-F)]TSD[4Pal]SI[αMeL]LD[Orn]K([AEEA-γGlu-C18 diacid])AQ[αMe4Pal]EFI[dE][αMeY]LLEGGPSSGAPPPSGE-NH2 [Example 615] | 0.575 nM | 0.95 nM | 82.9 nM | 3.93 nM | 0.00825 nM | 697 nM |  |  |  |  |  | 
H-Y[Aib]QGT[αMePhe(2-F)]TSD[4Pal]SI[αMeL]LD[Orn]K([AEEA-γGlu-C18 diacid])AQ[αMe4Pal]EFI[dE][αMeY]LLEGGPSSGAPPPSGS-NH2 [Example 641] | 0.489 nM | 0.832 nM | 68.3 nM | 3.72 nM | 0.00819 nM | 451 nM |  |  |  |  |  | 
H-Y[Aib]QGT[αMePhe(2-F)]TSD[4Pal]SI[αMeL]LD[Orn]K([AEEA-γGlu-C18 diacid])AQ[αMe4Pal]EFI[dE][αMeY]LLEGGPSSGEPPPSGS-NH2 [Example 645] | 0.596 nM | 0.863 nM | 76.3 nM | 3.25 nM | 0.00724 nM | 398 nM |  |  |  |  |  | 
H-Y[Aib]QGT[αMePhe(2-F)]TSD[4Pal]SI[αMeL]LD[Orn]K([AEEA-γGlu-C18 diacid])AQ[αMe4Pal]EFI[dE][αMeY]LQEGGPSSGAPPPSGS-NH2 [Example 643] | 0.741 nM | 1.61 nM | 60.1 nM | 16 nM | 0.0223 nM | 1170 nM |  |  |  |  |  | 
H-Y[Aib]QGT[αMePhe(2-F)]TSD[4Pal]SI[αMeL]LD[Orn]K([AEEA-γGlu-C18 diacid])AQ[αMe4Pal]EFI[dE][αMeY]LQEGGPSSGEPPPSGS-NH2 [Example 648] | 1.76 nM | 1.4 nM | 86.5 nM | 20.3 nM | 0.0392 nM | 1170 nM |  |  |  |  |  | 
